Our source for the Ki values is BindingDB's records for doi:10.7270/Q2SB445M (Nmmlsc, 2009).

The target of the assay is Ras-related protein Rab-7a (Canis lupus familiaris, UniProt P18067). In words: Rab7 GTP binding inhibitors, further analogs, SAR follow-up, biochemical, additional analogs, wildtype, multiplex bead flow cytometry (AID 2036). In general terms: A flow cytometer gives signals particle by particle.
Chain of Ras-related protein Rab-7a (P18067 whole entry): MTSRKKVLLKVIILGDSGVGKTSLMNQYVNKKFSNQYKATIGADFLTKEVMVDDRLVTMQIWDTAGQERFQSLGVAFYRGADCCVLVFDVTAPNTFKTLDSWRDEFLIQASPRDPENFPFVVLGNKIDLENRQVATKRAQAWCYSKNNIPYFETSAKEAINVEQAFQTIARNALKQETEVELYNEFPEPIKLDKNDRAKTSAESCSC

As usually defined, the Ki is a dissociation constant, usually derived from enzyme kinetics or from competition with a known ligand. The low end stands for tighter binding, the high end for weaker binding. `O=C1NC(=S)N/C1=C1\C(=O)Nc2ccccc21` [(3Z)-3-(5-oxo-2-sulfanylideneimidazolidin-4-ylidene)-1H-indol-2-one] had a Ki of 870 nM. As for `O=C1Nc2c(F)cccc2C1=C1Nc2ccccc2C1=O`, the figure is 1560 nM.
